The results in this text go back to patent publication US8669205B2, “Composition and method for controlling plant diseases” (Sumitomo Chemical Company, Limited, priority 2009, dated 2014).

Test [1] relates to Rhizoctonia damping-off pathogen (Rhizoctonial solani). The test is described as follows: Test Example 2: spray to the foot of rice, Rhizoctonia damping-off control. The conditions noted are these: rice (Nipponbare), tolclofos-methyl 50 alone, 5 days. Format: in vivo. How it is done: A plastic pot was filled with sandy soil and seeds of rice (Nipponbare) were sown on it, followed by cultivation in a greenhouse for 5 weeks. A wettable powder of the compound I was prepared by mixing 10 parts of the compound I, 35 parts of a mixture of white carbon and a polyoxyethylene alkyl ether sulfate ammonium salt (weight ratio of 1:1) and 55 parts of water, followed by grinding the mixture. A wettable powder of tolclofos-methyl was prepared by mixing 10 parts of […], 35 parts of a mixture of white carbon and a polyoxyethylene alkyl ether sulfate ammonium salt (weight ratio of 1:1) and 55 parts of water, followed by grinding the mixture. Each of the wettable powder thus prepared was diluted with water, respectively, followed by mixing together to prepare a mixed solution containing predetermined concentrations of the compound I and tolclofos-methyl. The mixed solution was sprayed to the foot of the rice. […] The occurrence of Rhizoctonia damping-off diseases was checked and the incidence of disease was calculated by Equation 3. […]
(§1) In order to calculate a control value, the same test was conducted in which the plants had been treated with none of the test compounds and the incidence of disease was determined.
(§2) The control value was calculated by the Equation 2 based on the incidence of disease thus determined. […]

The test system is the same in test [2]. The test is described as follows: Test Example 1: cucumber seed treatment, Rhizoctonia damping-off control. Format: in vivo. The conditions noted are these: cucumber (Sagamihanjiro) seed treatment, 9 days. How it is done: A DMSO solution of the compound I and a DMSO solution of tolclofos-methyl were respectively prepared. These solutions were mixed to prepare a DMSO solution containing predetermined concentrations of the compound I and tolclofos-methyl. Ten (10) μL of the DMSO solution and 1 g of cucumber (Sagamihanjiro) seeds were mixed by shaking in a 15-ml conical tube and then allowed to stand overnight to prepare treated seeds. A plastic pot was filled with sandy soil and the treated seeds were sown on it and then covered with sandy soil which had been mixed with a bran culture of Rhizoctonia damping-off pathogen (Rhizoctonial solani). The sown seeds were watered and then cultured in a greenhouse at 20 to 24° C. for 9 days. The occurrence of Rhizoctonia damping-off diseases was checked and the incidence of disease was calculated by Equation 1.
For comparison, a DMSO solution containing a predetermined concentration of tolclofos-methyl was prepared and subjected to the same test and then the incidence of disease was determined.
as §1, §2

As to `COP(=S)(OC)Oc1c(Cl)cc(C)cc1Cl` [Tolclofos-methyl], the Control value stood at 58 in test [1], 38 in test [2] (tolclofos-methyl 10 g/100 kg seeds alone) and 75 in test [2] (tolclofos-methyl 40 g/100 kg seeds alone).
